The values that follow come from patent publication US20130310374A1, “Substituted Imidazoquinoline Derivatives” (PIRAMAL ENTERPRISES LIMITED`, priority 2010, published 2013).

The structures appear in SMILES notation.

One data set relates to PI3K/mTOR pathway. Briefly: Western blot analysis in A2780 ovarian cancer cell line. In kind it is cell-based. The following applies: A2780 cells treated for 1 hour; FIG. 1A-1E. The protocol: Protocol for Western Blot Analysis
A2780 ovarian cancer cell line (ATCC) were grown to approximately 70% confluence in 100-mm tissue culture dishes and then treated for 1 hour with […] compounds of Example 2, 3, 5, 16, 19, 55 and 59. Total protein was extracted using cell lysis buffer (NaCl […], NP40 0.67%, Tris-Cl, pH 7.5, 67 mM) containing protease inhibitors and phosphatase inhibitors (Beta-glycerol phosphate 40 mM, DTT 1 mM, NaF 0.4 mM, Sodium-Orthovanadate 0.4 mM) at 4° C. for 1 hour. Cell lysates were then centrifuged at 2×10^4 g for 10 minutes at 4° C., and the protein concentration of the supernatant was quantified using the Bradford's method (BioRad, USA). For SDS-PAGE, 50 μg protein was loaded in SDS-PAGE, transferred to a polyvinylidene difluoride membrane (Bio-Rad, USA) and blocked with 5 mL buffer [5% skim milk and 0.1% Tween] for 1 hour 30 minutes. Membrane were probed with primary antibody (all primary antibodies were from cell signaling with 1:1000 in TBST solution) of respective protein at 4° C. overnight. Peroxidase-labeled anti-rabbit or anti-mouse antibodies (Santacruze, USA) were used as the secondary antibody. Actin and respective whole protein levels were used as the control for protein loading. Protein antigens were detected using Chemiluminescent Substrate (Thermo scientific, USA) and exposed on Kodak station.
For orientation: Immunoblotting shows a protein as a band on a membrane.

Another data set relates to BT 549. Briefly: Cytotoxicity propidium iodide assay, BT 549. In kind it is cell-based. The following applies: Homo sapiens; BT 549 (breast), 48 hours treatment; read-out: IC50 Values in μM, C3c. In a few lines:
(§1)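 Viability is measured by propidium iodide fluorescence in cells seeded at 3000/well and treated for 48 h. IC50 is obtained from percent viability normalised to untreated wells.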

The next data set deals with AsPC 1. Briefly: Cytotoxicity propidium iodide assay, AsPC 1. The format is cell-based. The following applies: Homo sapiens, ASPC1; AsPC 1 (pancreatic), 48 hours treatment; read-out: IC50 Values in μM, C4b.
In another data set the test system is K562. Nature of the data set: Cytotoxicity propidium iodide assay, K562. The format is cell-based. The conditions noted are these: Homo sapiens; K562 (CML), 48 hours treatment; read-out: IC50 Values in μM, C6a. Summed up:
as §1

Another data set has as its system KCL22/SR. Nature of the data set: Cytotoxicity propidium iodide assay, KCL22/SR. The format is cell-based. The conditions noted are these: Homo sapiens, KCL-22; KCL22/SR (CML), 48 hours treatment; read-out: IC50 Values in μM, C6e. Summed up:
as §1

Another data set deals with TNF-α. Briefly: Anti-CD3 mAb and anti-CD28 mAb-induced cytokine production assay, TNF-α. The format is cell-based. The conditions noted are these: Homo sapiens, hPBMC, anti-CD3/anti-CD28, 18 hours. The method, then:
(§2) Anti-CD3 mAb and Anti-CD28 mAb-Induced Cytokine Production Assay
(§3) Preparation of anti-CD3/anti-CD28 coated plates: 96 well plates were coated with goat anti-mouse IgG, Fc (Millipore) at a concentration of 16.5 μg/mL in coating buffer ([…] NaHCO3, 3.56 g Na2CO3, pH 9.5). Following overnight incubation at 4° C., the plates were washed and then incubated with anti-CD3 (3.5 μg/mL; R&D Systems) and anti-CD28 (35 ng/mL; R&D Systems) cocktail for 3 hours. Subsequently, the plates were washed, and used for hPBMC stimulation.
(§4) hPBMC stimulation: Peripheral blood was collected from normal healthy volunteers after informed consent. Peripheral blood mononuclear cells (hPBMC) were harvested using Ficoll-Hypaque density gradient centrifugation (1.077 g/mL; Sigma Aldrich). hPBMCs were resuspended in RPMI 1640 culture medium (Gibco BRL, Pasley, UK) containing 10% FCS, 100 U/mL penicillin (Sigma Chemical Co. St Louis, Mo.) and […] streptomycin (Sigma Chemical Co. St Louis, Mo.) at 1.25×10^6 cells/mL of assay medium. 2.5×10^5 hPBMCs were added per well of 96-well plate coated with or without anti-CD3/anti-CD28 mAbs. Simultaneously, 0.025 μM of compounds of the present invention or 0.5% DMSO (vehicle control) were added to appropriate wells. The cells were then incubated for 18 hours at 37° C., 5% CO2 following which supernatants were collected, stored at […] and assayed later for TNF-α, IL-6 and IFN-γ by ELISA (OptiEIA ELISA sets; BD Biosciences). In every experiment, each condition was run in triplicate wells. In all experiments, the toxicity of test compounds was ascertained, in parallel, using the MTS (3-(4,5-dimethylthiazol-2-yl)-5-(3-carboxymethoxyphenyl)-2-(4-sulfonyl)-2H-tetrazolium) assay as described in Am. J. Physiol. Cell Physiol., 2003, 285, C813-C822.

A further data set relates to IL-6. Briefly: Anti-CD3 mAb and anti-CD28 mAb-induced cytokine production assay, IL-6. In kind it is cell-based. The following applies: Homo sapiens, hPBMC, anti-CD3/anti-CD28, 18 hours. The protocol:
as §2, §3, §4

For the next data set, the system named is IFN-γ. Nature of the data set: Anti-CD3 mAb and anti-CD28 mAb-induced cytokine production assay, IFN-γ. The format is cell-based. The conditions noted are these: Homo sapiens, hPBMC, anti-CD3/anti-CD28, 18 hours. The method, then: as §2, §3, §4
A further data set concerns hPBMC. Nature of the data set: MTS toxicity assay in parallel to anti-CD3/anti-CD28 cytokine assay. The following applies: anti-CD3/anti-CD28 experiment. In kind it is cell-based, human. The method, then: as §4
In general terms: Formazan colour is commonly taken as a measure of viable cells.

`CC(C)(C#N)c1ccc(-n2c(=O)n(CC#N)c3cnc4ccc(-c5cnc(N)c(C(F)(F)F)c5)cc4c32)cn1` [Example 16, 2-(5-(8-(6-Amino-5-(trifluoromethyl)pyridin-3-yl)-3-(cyanomethyl)-2-oxo-2,3-dihydro-1H-imidazo[4,5-c]quinolin-1-yl)pyridin-2-yl)-2-methylpropanenitrile]: the “Akt, S6 and 4EBP1 phosphorylation (Western blot)” value (shortened to “Akt, S6 and 4EBP1 phosphorylation”) in the data set with PI3K/mTOR pathway was “inhibit Akt, S6 and 4EBP1 phosphorylation”. Moreover, the IC50 – broadly, the concentration at which inhibition is half-maximal – amounted to 0.015 µM in the data set with BT 549, 0.038 µM in the data set with AsPC 1, 0.4 µM in the data set on K562 and 0.23 µM in the data set on KCL22/SR. Further, the inhibition (as a rule, how much of the control response was suppressed) at 0.025 µM was 81% in the data set with TNF-α, 75% with IL-6 and 80% in the data set on IFN-γ. In the data set on hPBMC, the “% Toxicity at 0.025 μM” value is 0%.

For `COc1ccc(-n2c(=O)n(C)c3cnc4ccc(-c5cnc(N)c(C(F)(F)F)c5)cc4c32)cn1` [Example 19, 8-(6-Amino-5-(trifluoromethyl)pyridin-3-yl)-1-(6-methoxypyridin-3-yl)-3-methyl-1H-imidazo[4,5-c]quinolin-2(3H)-one], the “Akt, S6 and 4EBP1 phosphorylation” value with PI3K/mTOR pathway is “inhibit Akt, S6 and 4EBP1 phosphorylation”. In addition, the IC50 is 0.23 µM with BT 549, 0.1 µM with AsPC 1, 0.056 µM in the data set with K562 and 0.06 µM in the data set on KCL22/SR. Also, the inhibition at 0.025 µM is 87% in the data set on TNF-α, 86% in the data set with IL-6 and 87% with IFN-γ. Besides, the “% Toxicity at 0.025 μM” value in the data set with hPBMC was 19%.

Consider `Cn1c(=O)n(-c2ccc(C(C)(C)C#N)nc2)c2c3cc(-c4cnc5ccccc5c4)ccc3ncc21` [Example 2, 2-Methyl-2-(5-(3-methyl-2-oxo-8-(quinolin-3-yl)-2,3-dihydro-1H-imidazo[4,5-c]quinolin-1-yl)pyridin-2-yl)propanenitrile], for which the “Akt, S6 and 4EBP1 phosphorylation” value in the data set with PI3K/mTOR pathway is “inhibit Akt, S6 and 4EBP1 phosphorylation”. Moreover, the IC50 in the data set on BT 549 came to 0.9 µM; in the data set on AsPC 1 it was 0.09 µM. Further, the inhibition at 0.025 µM turned out to be 63% with TNF-α, 43% in the data set on IL-6 and 71% in the data set with IFN-γ. The “% Toxicity at 0.025 μM” value in the data set on hPBMC was 12%.

Consider `CS(=O)(=O)O.Cn1c(=O)n(-c2ccc(C(C)(C)C#N)nc2)c2c3cc(-c4cnc(N)c(C(F)(F)F)c4)ccc3ncc21` [Example 3a, 8-(6-Amino-5-(trifluoromethyl)pyridin-3-yl)-1-(6-(2-cyanopropan-2-yl)pyridin-3-yl)-3-methyl-2-oxo-2,3-dihydro-1H-imidazo[4,5-c]quinolin-5-ium methanesulfonate], for which the “Akt, S6 and 4EBP1 phosphorylation” value with PI3K/mTOR pathway is “inhibit Akt, S6 and 4EBP1 phosphorylation”.

On to `Cn1c(=O)n(-c2ccc(C(C)(C)C#N)nc2)c2c3cc(-c4cnc(N)c(C(F)(F)F)c4)ccc3ncc21` [Example 3, 2-(5-(8-(6-Amino-5-(trifluoromethyl)pyridin-3-yl)-3-methyl-2-oxo-2,3-dihydro-1H-imidazo[4,5-c]quinolin-1-yl)pyridin-2-yl)-2-methylpropanenitrile], for which, in the data set on PI3K/mTOR pathway, the “Akt, S6 and 4EBP1 phosphorylation” value was “inhibit Akt, S6 and 4EBP1 phosphorylation”. The IC50 with BT 549 turned out to be 0.03 µM; with AsPC 1 it was 0.019 µM; with K562, 0.056 µM; in the data set with KCL22/SR, 0.06 µM. The inhibition at 0.025 µM with TNF-α was 92%; with IL-6, 84%; in the data set on IFN-γ, 93%. Also, the “% Toxicity at 0.025 μM” value in the data set on hPBMC was 24%.
